Data reported in publication PMC5402304, “Oxoaporphine Metal Complexes (Co^II, Ni^II, Zn^II) with High Antitumor Activity by Inducing Mitochondria-Mediated Apoptosis and S-phase Arrest in HepG2” (Scientific Reports, 2017).

Assays:
HepG2 [1] = experiment: MTT cytotoxicity assay, HepG2; assay type: cell-based, human; conditions: for inhibitive ratio: HepG2, 20 μmol/L, 48 h; for IC50: HepG2, 48 h, MTT
Experimental: (§1) The in vitro cytotoxicity of OD, 1–3 and the corresponding metal salts were determined by MTT assay towards a panel of human tumor cells including HepG2, T-24, BEL-7404, MGC80-3, SK-OV-3/DDP and normal HL-7702 cells. As the positive control, cisplatin was dissolved at a concentration of 1 mM in 0.154 M NaCl[32].
(§2) The human tumor cell lines (BEL-7404, HepG2, MGC80–3, T-24, SK-OV-3/DDP and HeLa cells) and the human normal liver cell line HL-7702 were obtained from Shanghai Cell Bank in Chinese Academy of Sciences. Cells were cultured in Dulbecco’s modified Eagle’s medium (DMEM) or RPMI-1640 medium, which supplemented with 10% fetal bovine serum (FBS) and 100 U/mL penicillin and streptomycin. Cells were cultured at 37 °C in a humidified atmosphere with 5% CO2/95% air. Tested compounds (2.0 mM) were prepared as DMSO stock solution before they were diluted to working concentrations by PBS buffer (containing 0.5% DMSO), while cisplatin dissolved in 0.9% sodium chloride solution was used as positive controls.
(§3) Cells in their logarithmic phase were seeded in 96-well plates with 5.5 × 10^3/180 μL per well for 24 h. Then 20 μL of compounds at various concentrations were added to each well to achieve final concentrations of 1.25, 2.5, 5.0, 10.0, and 20.0 μM. All the cells were incubated with test compounds for another 48 h before MTT assay. Control wells contained media with 0.5% DMSO. After 48 h of cultivation, 10 μL of MTT (5 mg/mL in PBS) was added to each well, and cells were incubated at 37 °C for 6 h. The contents in the wells were pipetted out carefully, and the formazan crystals formed were dissolved in 100 μL of DMSO, and the absorbance was measured by enzyme labeling instrument with 490 nm/630 nm double wavelength measurement. The IC50 value was defined as a drug concentration killing 50% cells in comparison with untreated controls, which was calculated by the Bliss method (n = 5). All tests were repeated in at least three independent trials.

T-24 = experiment: MTT cytotoxicity assay, T-24; assay type: cell-based, human; conditions: for inhibitive ratio: T-24, 20 μmol/L, 48 h; for IC50: T-24, 48 h, MTT
Experimental: as §1, §2, §3

BEL-7404 = experiment: MTT cytotoxicity assay, BEL-7404; assay type: cell-based, human; conditions: for inhibitive ratio: BEL-7404, 20 μmol/L, 48 h; for IC50: BEL-7404, 48 h, MTT
Experimental: as §1, §2, §3

MGC80-3 = experiment: MTT cytotoxicity assay, MGC80-3; assay type: cell-based, human; conditions: for inhibitive ratio: MGC80-3, 20 μmol/L, 48 h; for IC50: MGC80-3, 48 h, MTT
Experimental: as §1, §2, §3

SK-OV-3/DDP = experiment: MTT cytotoxicity assay, SK-OV-3/DDP; assay type: cell-based, human; conditions: 48 h; for IC50: SK-OV-3/DDP, MTT; for inhibitive ratio: SKOV-3/DDP, 20 μmol/L
Experimental: as §1, §2, §3

HL-7702 = experiment: MTT cytotoxicity assay, normal liver cells HL-7702; assay type: cell-based, human; conditions: 48 h; for inhibitive ratio: HL-7702, 20 μmol/L; for IC50: HL-7702 normal liver cells, MTT
Experimental: as §1, §2, §3

HepG2 cells = experiment: Comet assay for DNA damage; assay type: cell-based, human; parameters: unit not given here; conditions: HepG2, 1.0 μM, 24 h
Experimental: After the observation of significant S-phase arrest caused by 1–3, the study of DNA damage assay is necessary. The single cell gel electrophoresis technique (comet assay) is a simple, sensitive, reliable, and rapid method to detect DNA damage in eukaryotic cell[39]. As shown in Table 3 and Fig. 6, 1–3 at 1.0 μM induced DNA damage (fragmentation or unwinding) appeared as fluorescent comets with remarkable increase of tails size, especially for 3.
The comet assay is a simple method for measuring DNA strand breaks in cells. The comet assay reagent kit was purchased from Trevigen, and the experiment was carried out according to the manufacturer’s instructions. After treatment with OD and 1–3 at 1.0 μM, HepG2 cells were harvested and suspended at 1 × 10^6 Hep-G2 cells/mL in PBS. The cells suspension was mixed with melted LM agarose at a ratio of 1:10 (v/v). An aliquot (75 μL) of the mixture was immediately pipetted onto the slide (Comet Slide TM). After refrigeration for 30 min, the slide was immersed in pre-chilled lysis solution and left on ice for 60 min, followed by immersing in freshly prepared alkaline solution (300 mM NaOH, 1 mM EDTA, pH > 13) for 60 min on ice in darkness. After DNA unwinding, the slide was subjected to alkaline solution for electrophoresis in a Savant ps 250 system set at 300 mA and 1 volt/cm for 30 min. After electrophoresis, the slide was rinsed with distilled H2O, fixed in 70% ethanol for 5 min and air-dried overnight. DNA was stained with SYBR Green I (Trevigen) and visualized under a fluorescence microscope (Nikon, Eclipse E600).

HepG2 [2] = experiment: Cell apoptosis assay by flow cytometry, Annexin V-FITC/PI; assay type: cell-based, human; conditions: HepG2, 5.0 μM, 24 h
Experimental: The quantitative analysis of apoptotic HepG2 induced by 1–3 (1.0, 2.0 and 5.0 μM) and their corresponding metal salts (5.0 μM) after 24 h treatment, were investigated by flow cytometry and Annexin V-FITC/PI double staining. As depicted in Figs 7 and S6, 1–3 caused a significant increase in apoptotic cells comparing to the untreated cells.
Cell cycle progression and apoptosis were determined by flow cytometric analysis. (a) Cell cycle arrest assay: HepG2 cells in their logarithmic phase were plated into 50 mL plates at a final density of 5−6 × 10^6 cells/well overnight, then they were treated with various doses (0.25, 0.5 and 1.0 μM) of 1–3 for another 24 h. Cells were trypsinized, collected, and fixed in ice-cold 75% ethanol at −20 °C overnight. After centrifugation, the fixed cells were rinsed with ice-cold phosphate buffered saline (PBS), and resuspended in 0.5 mL of PBS containing 100 μg/mL RNase, 50 μg/mL propidium iodide (PI) in the dark for 5−10 min. The cell cycle distribution was analyzed by FACS Calibur flow cytometer (BD) and calculated using ModFIT LT software. (b) Apoptosis assay: 1 × 10^5 HepG2 cells were plated in 6-well plates, after incubation for 24 h with complexes 1–3 at 1.0, 2.0 and 5.0 μM, cells were collected, and Apoptosis Detection kit FITC Annexin V was used to analyze the cell apoptosis according to the manufacturer’s instructions.

caspase-3 = experiment: Caspase-3 activation by flow cytometry (CaspGLOW); assay type: cell-based, human; conditions: HepG2, 1.0 μM, 24 h; control 4.2%
Experimental: (§4) Caspase family is closely related to the cell apoptosis via the mitochondrial pathway, especially caspases-3, -8 and -9. To better understand the antitumor mechanisms, it needs to confirm whether caspase-3, -8 and -9 are activated when the tumor cells are treated with 1–3.
(§5) The measurement of caspase-3, -8 and -9’s activities was performed by CaspGLOW fluorescein active caspase-3, -8 and -9 staining kit. HepG2 cells were treated with 1 μM 1–3 for 24 h, harvested at a density of 1 × 10^6 cells/mL, and then suspended in 300 μL volume with PBS. To the suspension, 1 μL of caspase-3 inhibitor (FITC-DEVD-FMK), caspase-8 inhibitor (FITC-IETD-FMK) or caspase-9 inhibitor (FITC-LEHD-FMK) was consequently added and incubated for 1 h at 37 °C in 5% CO2 incubator. The cells were then examined by a FACSAria II flow cytometer equipped with a 488 nm argon laser. The results were represented as the percent change on the activity compared with the control.

caspase-8 = experiment: Caspase-8 activation by flow cytometry (CaspGLOW); assay type: cell-based, human; conditions: HepG2, 1.0 μM, 24 h; control 1.8%
Experimental: as §4, §5

caspase-9 = experiment: Caspase-9 activation by flow cytometry (CaspGLOW); assay type: cell-based, human; conditions: HepG2, 1.0 μM, 24 h; control 1.9%
Experimental: as §4, §5

HepG2 xenograft = HepG2 xenograft nude mice model, tumor growth inhibition; assay type: in vivo, BALB/c nude mice; conditions: 2.0 mg/kg ip every two days
Experimental: BALB/c nude mice (male, 17–20 g, 5–6 weeks old) were supplied by Guangxi Medical University Laboratory Animal Centre (Guangxi, China, approval no. SCXK 2014–0002 and SYXK 2014–0003). All of the experimental procedures were carried out according to the NIH Guidelines for the Care and Use of Laboratory Animals. Animal experiments were approved by the Animal Care and Use Committee of Guangxi Medical University. Animal were housed at IVC system (individual ventilated caging) with conditions of constant photoperiod (12 h light/12 h dark at 25−28 °C and 45−65% humidity). The xenograft tumor model was established in the same way as we reported before[30]. The maximum solubility of 3 in DMSO/saline solvent (v/v, 5/100) with administration volume 0.8 mL/20 g was used as the high dose (6.0 mg/kg) group (n = 6). Meanwhile low dose group mice got 3.0 mg/kg, intraperitoneal injection every day, and the control group received corresponding solvent. The positive control group was administered with cisplatin at 2.0 mg/kg every two days by intraperitoneal injection (cisplatin dissolved in saline).
The tumor volumes and body weight were measured every 3 days, and tumor size was calculated as volume = (w^2l)/2, where w is the width and l is the length in mm of tumor[70]. On day 21, the mice were sacrificed, and the tumor tissue was dissected out and weighted. The in vivo antitumor activity is evaluated by two indicators[71][72]: the tumor relative increment rate (T/C = TRTV/CRTV × 100%) and tumor weight inhibition rate [IR = (Wc − Wt)/Wc × 100%,], where TRTV and CRTV were the RTV of treated group and control group, respectively (RTV: relative tumor volume, RTV = Vt /V0); Wt and Wc are the average tumor weight of complex-treated and vehicle controlled group, respectively.

[3] = Body weight of mice in the HepG2 xenograft model; assay type: in vivo, BALB/c nude mice; conditions: 2.0 mg/kg ip every two days; permissible value 20%
Experimental: To further evaluate the in vivo antitumor efficacy of these complexes, 3 was selected to inhibit tumor growth in a HepG2 xenografts model. The mice were randomized into control group, 3-treated groups and positive control group (n = 6). Once the tumor had grown to an average volume of about 100 mm^3, two group of nude mice were injected intraperitoneally (ip) of 3 at a high dose (6.0 mg/kg) and a low (3.0 mg/kg) dose daily for 20 days, respectively. Cisplatin was used as positive control injected at 2.0 mg/kg every two days, while control group received solvents only.
BALB/c nude mice (male, 17–20 g, 5–6 weeks old) were supplied by Guangxi Medical University Laboratory Animal Centre (Guangxi, China, approval no. SCXK 2014–0002 and SYXK 2014–0003). All of the experimental procedures were carried out according to the NIH Guidelines for the Care and Use of Laboratory Animals. Animal experiments were approved by the Animal Care and Use Committee of Guangxi Medical University. Animal were housed at IVC system (individual ventilated caging) with conditions of constant photoperiod (12 h light/12 h dark at 25−28 °C and 45−65% humidity). The xenograft tumor model was established in the same way as we reported before. […]
The tumor volumes and body weight were measured every 3 days, and tumor size was calculated as volume = (w^2l)/2, where w is the width and l is the length in mm of tumor[70]. […]

Row | Molecule | inhibitive ratio (HepG2 [1]) [%] | IC50 (HepG2 [1]) [µM] | inhibitive ratio (T-24) [%] | IC50 (T-24) [µM] | inhibitive ratio (BEL-7404) [%] | IC50 (BEL-7404) [µM] | inhibitive ratio (MGC80-3) [%] | IC50 (MGC80-3) [µM] | IC50 (SK-OV-3/DDP) [µM] | inhibitive ratio (SK-OV-3/DDP) [%] | inhibitive ratio (HL-7702) [%] | IC50 (HL-7702) [µM] | Comet length (HepG2 cells) | Olive tail moment (HepG2 cells) | Tail length (HepG2 cells) | Tail moment (HepG2 cells) | population of apoptotic cells (HepG2 [2]) [%] | proportion of activated caspase-3 (caspase-3) [%] | proportion of activated caspase-8 (caspase-8) [%] | proportion of activated caspase-9 (caspase-9) [%] | further results
1 | [Ni(OD)2(CH3OH)2](ClO4)2 [Complex 2] | 87.68 ±0.92 | 0.2 ± 0.09 | 82.31±0.60 | 0.23 ± 0.13 | 69.38±0.65 | 9.66 ± 0.35 | 71.86±0.28 | 2.86 ± 0.29 | 0.18 ± 0.03 | 84.44±0.65 | 72.34±0.22 | 5.35 ± 0.34 | 99.56 ± 10.57 | 20.56 ± 7.54 | 45.69 ± 8.27 | 29.52 ± 8.66 | 26.1 | 39.9 | 36.7 | 36.0 | 
2 | [O-][Cl+3]([O-])([O-])[O-].[O-][Cl+3]([O-])([O-])[O-].[Zn+2] [Zn(ClO4)2, reference compound] | 30.94±0.39 |  | 28.19±0.13 |  | 24.07±0.15 |  | 17.63±0.07 |  |  | 12.33±0.05 | 43.18±0.19 |  |  |  |  |  |  |  |  |  | 
3 | [Ni+2].[O-][Cl+3]([O-])([O-])[O-].[O-][Cl+3]([O-])([O-])[O-] [Ni(ClO4)2, reference compound] | 32.57±0.29 |  | 37.86±0.19 |  | 32.31±0.07 |  | 16.35±0.09 |  |  | 11.25±0.12 | 50.14±0.06 |  |  |  |  |  |  |  |  |  | 
4 | N.N.[Cl][Pt][Cl] [cisplatin, reference compound] | 71.93±0.83 | 7.72 ± 0.83 | 75.26±1.00 | 7.48 ± 0.26 | 76.07±2.68 | 10 ± 0.53 | 65.58±0.09 | 16 ± 1.53 | 66 ± 1.53 | 15.13±0.07 | 68.96±1.34 | 5.18 ± 0.68 |  |  |  |  |  |  |  |  | IR (tumor weight inhibition rate) (HepG2 xenograft): 65.8%; drop in body weight [3]: 25.8%
5 | [Co(OD)2(H2O)2](ClO4)2 [Complex 1] | 88.34± 1.03 | 0.66 ± 0.11 | 85.35±0.73 | 0.45 ± 0.17 | 63.96±0.78 | 8.98 ± 0.15 | 61.54±0.33 | 1.38 ± 0.14 | 0.26 ± 0.03 | 78.17±1.69 | 56.73±0.14 | 8.11 ± 0.55 | 65.45 ± 6.54 | 3.67 ± 2.09 | 8.01 ± 4.98 | 4.65 ± 1.34 | 33.1 | 45.1 | 35.3 | 27.7 | 
6 | [Co+2].[O-][Cl+3]([O-])([O-])[O-].[O-][Cl+3]([O-])([O-])[O-] [Co(ClO4)2, reference compound] | 32.87±0.13 |  | 36.23±0.09 |  | 23.29±0.09 |  | 24.74±0.03 |  |  | 21.74±0.03 | 45.91±0187 |  |  |  |  |  |  |  |  |  | 
